Data from patent publication US20080194585A1, “Fungicidal Pyrazine Derivatives” (priority 2005, published 2008).
Marks after values point to notes of the source that are not given here.

Experiments:
[1] = system: Puccinia recondita f. sp. tritici; experiment: Test K: wheat leaf rust, preventive spray on wheat seedlings; conditions: 40 ppm (*)
Pythium aphanidermatum = experiment: Test A: bluegrass pythium blight, preventive spray on bluegrass seedlings; conditions: 40 ppm (*)
Botrytis cinerea = experiment: Test E: tomato botrytis, preventive spray on tomato seedlings; conditions: 40 ppm (*)
[2] = system: Colletotrichum orbiculare; experiment: Test B: cucumber Colletotrichum anthracnose, preventive spray on cucumber seedlings; conditions: 40 ppm (*)
Plasmopara viticola = experiment: Test D: grape downy mildew, spray after inoculation of grape seedlings; type: in vivo
Source text: Upon removal, disease ratings were made. […] A dash (-) indicates no test results.

[3] = system: Erysiphe graminis f. sp. tritici; experiment: Test L: wheat powdery mildew, preventive spray on wheat seedlings; conditions: 40 ppm (*)
Phytophthora infestans = experiment: whole plant or invertebrate; type: in vivo; conditions: 40 ppm (*)
Septoria nodorum = experiment: Test H: wheat glum blotch, preventive spray on wheat seedlings; conditions: 40 ppm (*)
Procedure: (the causal agent of wheat glum blotch) and incubated in a saturated atmosphere at 20° C. for 48 h, and then moved to a growth chamber at 22° C. for 5 days, after which disease ratings were made.

Sclerotinia sclerotiorum = experiment: Test C: cucumber white mold, preventive spray on cucumber seedlings; conditions: 40 ppm (*)
Rhizoctonia oryzae = experiment: Test G: turf brown patch, preventive spray on creeping bent grass seedlings; conditions: 40 ppm (*)
Procedure: (the causal agent of turf brown patch) and incubated in a saturated atmosphere at 27° C. for 24 h, and then moved to a growth chamber at 27° C. for 5 days, after which disease ratings were made.

Septoria tritici = experiment: Test J: wheat leaf blotch, preventive spray on wheat seedlings; type: in vivo; conditions: 40 ppm (*)
Source text: A dash (-) indicates no test results.

Row | Structure (SMILES) | Test K disease control rating [1] | Test A disease control rating (Pythium aphanidermatum) | Test E disease control rating (Botrytis cinerea) | Test B disease control rating [2] | Test D disease control rating (Plasmopara viticola; 40 ppm (*)) | Test L disease control rating [3] | Test F disease control rating (Phytophthora infestans) | Test H disease control rating (Septoria nodorum) | Test C disease control rating (Sclerotinia sclerotiorum) | Test G disease control rating (Rhizoctonia oryzae) | Test J disease control rating (Septoria tritici) | Test D disease control rating (Plasmopara viticola; 200 ppm)
1 | CC1CCCCC1n1c(-c2c(F)cccc2F)c(Cl)nc(-n2cccn2)c1=O (stereo not shown) [compound 224] | 94* % | 0* % | 100* % | 66* % | 0* % | 83* % | 0* % | 99* % | 0* % | 92* % | 100* % | –
2 | CC1CCCCC1n1c(-c2c(F)cccc2F)c(Cl)nc(-n2cncn2)c1=O (stereo not shown) [compound 225] | 73* % | 0* % | 100* % | 0* % | 0* % | 0* % | 0* % | 73* % | 0* % | 0* % | 100* % | –
3 | CCCCn1c(-c2c(F)cc(F)cc2F)c(Cl)nc(N2CCC=N2)c1=O [compound 226] | 82* % | 0* % | 0* % | 0* % | 0* % | 46* % | 0* % | 95* % | 0* % | 0* % | 100* % | –
4 | CCCCn1c(-c2c(F)cc(F)cc2F)c(Cl)nc(-n2cccn2)c1=O [compound 227] | 100* % | 0* % | 100* % | 96* % | 96* % | 99* % | 0* % | 100* % | 0* % | 100* % | 100* % | –
5 | CCCCn1c(-c2c(F)cc(F)cc2F)c(Cl)nc(-n2ccc(C)n2)c1=O [compound 228] | 99* % | 0* % | 100* % | 98* % | 77* % | 99* % | 0* % | 100* % | 0* % | 99* % | 99* % | –
6 | CCCCn1c(-c2c(F)cc(F)cc2F)c(Cl)nc(-n2cncn2)c1=O [compound 229] | 17* % | 0* % | 95* % | 0* % | 0* % | 88* % | 0* % | 82* % | 0* % | 16* % | 57* % | –
7 | CCCCn1c(-c2c(F)cc(F)cc2F)c(Cl)nc(-n2nccc2C)c1=O [compound 239] | 0* % | 0* % | 0* % | 0* % | 0* % | 0* % | 0* % | 0* % | 0* % | 0* % | 19* % | –
8 | CCCCn1c(-c2c(F)cc(F)cc2F)c(Cl)nc(-c2ccccn2)c1=O [compound 240] | 67* % | 0* % | 100* % | 9* % | 0* % | 98* % | 0* % | 78* % | 0* % | 0* % | 93* % | –
9 | Cc1ccn(-c2nc(Cl)c(-c3c(F)cccc3F)n(CC(C)C)c2=O)n1 [compound 241] | 100* % | 0* % | 100* % | 92* % | 33* % | 93* % | 0* % | 95* % | 0* % | 85* % | 100* % | –
10 | Cc1ccn(-c2nc(C)c(-c3c(F)cccc3F)n(CC(C)C)c2=O)n1 [compound 243] | 45* % | 0* % | 100* % | 0* % | 0* % | 98* % | 0* % | 0* % | 0* % | 68* % | 86* % | –
11 | CC(C)Cn1c(-c2cccnc2Cl)c(Cl)nc(-n2cccn2)c1=O [compound 244] | 8* % | 0* % | 42* % | 0* % | 31* % | 0* % | 0* % | 0* % | 0* % | 0* % | 9* % | –
12 | COc1cccc(-c2c(Cl)nc(-n3cncn3)c(=O)n2CC(C)C)c1 [compound 245] | 0* % | 0* % | 0* % | 0* % | 0* % | 0* % | 0* % | 0* % | 0* % | 0* % | 46* % | –
13 | COc1cccc(-c2c(Cl)nc(-n3cccn3)c(=O)n2CC(C)C)c1 [compound 246] | 0* % | 0* % | 99* % | 0* % | – | 78* % | 0* % | 0* % | 0* % | 0* % | 26* % | 9%
14 | Cc1cccc(-c2c(Cl)nc(-n3cncn3)c(=O)n2CC(C)C)c1 [compound 247] | 0* % | 0* % | 0* % | 0* % | 0* % | 0* % | 0* % | 0* % | 0* % | 0* % | 35* % | –
